In patent US12590091B2, “1H-pyrrolo[3,2-C]pyridine and 1H-pyrrolo[2,3-C]pyridine derivatives as TLR9 inhibitors for the treatment of fibrosis” (BRISTOL-MYERS SQUIBB COMPANY, priority 2020, dated 2026):

Target: T1, human TLR8 (Homo sapiens, UniProt Q9NR97)
T1 construct: host or cells: HEK-Blue cells
T1 sequence (Q9NR97 27-1041): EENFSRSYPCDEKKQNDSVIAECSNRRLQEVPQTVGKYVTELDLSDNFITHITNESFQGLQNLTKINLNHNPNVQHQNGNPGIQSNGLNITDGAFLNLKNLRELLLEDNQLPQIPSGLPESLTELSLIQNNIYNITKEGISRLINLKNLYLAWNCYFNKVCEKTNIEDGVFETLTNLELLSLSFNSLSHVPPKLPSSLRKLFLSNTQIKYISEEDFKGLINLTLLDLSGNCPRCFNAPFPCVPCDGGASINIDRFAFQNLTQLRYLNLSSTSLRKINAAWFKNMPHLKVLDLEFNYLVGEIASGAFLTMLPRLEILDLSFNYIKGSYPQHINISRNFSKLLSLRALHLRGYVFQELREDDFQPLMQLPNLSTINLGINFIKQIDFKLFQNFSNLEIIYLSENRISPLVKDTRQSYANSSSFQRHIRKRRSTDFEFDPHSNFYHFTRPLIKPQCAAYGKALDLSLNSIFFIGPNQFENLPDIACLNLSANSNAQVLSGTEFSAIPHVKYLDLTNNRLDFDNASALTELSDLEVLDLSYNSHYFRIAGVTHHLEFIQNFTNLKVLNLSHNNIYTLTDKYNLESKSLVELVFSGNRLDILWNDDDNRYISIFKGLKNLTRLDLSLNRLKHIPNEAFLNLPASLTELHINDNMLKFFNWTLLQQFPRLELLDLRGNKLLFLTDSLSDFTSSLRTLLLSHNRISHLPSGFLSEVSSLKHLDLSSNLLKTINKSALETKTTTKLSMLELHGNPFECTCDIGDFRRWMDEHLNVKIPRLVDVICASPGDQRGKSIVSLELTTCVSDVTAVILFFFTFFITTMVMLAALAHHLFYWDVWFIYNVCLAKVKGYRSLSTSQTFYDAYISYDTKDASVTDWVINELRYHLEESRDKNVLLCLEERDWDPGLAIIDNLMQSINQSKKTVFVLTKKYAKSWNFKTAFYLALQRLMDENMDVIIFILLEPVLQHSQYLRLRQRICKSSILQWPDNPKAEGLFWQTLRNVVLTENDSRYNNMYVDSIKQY
Assay: TLR8 inhibition reporter assay (HEK-Blue cells, SEAP reporter)
Type: cell-based
Details: HEK-Blue cells overexpressing human TLR8, stimulated with R848 15.9 μM, 22 hour incubation
Description: TLR7/8/9 Inhibition Reporter Assays
HEK-Blue™-cells (Invivogen) overexpressing human TLR7, TLR8 or TLR9 receptors were used for screening inhibitors of these receptors using an inducible SEAP (secreted embryonic alkaline phosphatase) reporter gene under the control of the IFN-β minimal promoter fused to five NF-κB and AP-1-binding sites. Briefly, cells are seeded into Greiner 384 well plates (15000 cells per well for TLR7, 20,000 for TLR8 and 25,000 for TLR9) and then treated with test compounds in DMSO to yield a final dose response concentration range of 0.05 nM-50 μM. After a 30 minute compound pre-treatment at room temperature, the cells are then stimulated with a TLR7 ligand (gardiquimod at a final concentration of 7.5 μM), TLR8 ligand (R848 at a final concentration of 15.9 μM) or TLR9 ligand (ODN2006 at a final concentration of 5 nM) to activate NF-κB and AP-1 which induce the production of SEAP. After a 22 hour incubation at 37° C., 5% CO2, SEAP levels are determined with the addition of HEK-Blue™ Detection reagent (Invivogen), a cell culture medium that allows for detection of SEAP, according to manufacturer's specifications. The percent inhibition is determined as the % reduction in the HEK-Blue signal present in wells treated with agonist plus DMSO alone compared to wells treated with a known inhibitor.

Row | SMILES | IC50 [µM]
1 | Cc1nc(-c2ccc(C3(O)CCN(C(C)C)CC3)cc2)cc2c1cc(-c1ccc(S(C)(=O)=O)cc1)n2C [Example 88, 4-(4-(1,4-dimethyl-2-(4-(methylsulfonyl)phenyl)-1H-pyrrolo[3,2-c]pyridin-6-yl)phenyl)-1-isopropylpiperidin-4-ol] | 10.5
2 | Cc1nc(-c2ccc(C3(O)CC4CCC(C3)N4C)c(F)c2)cc2c1cc(-c1ccc(S(C)(=O)=O)cc1)n2C [Example 102, (1R,3r,5S)-3-(4-(1,4-dimethyl-2-(4-(methylsulfonyl)phenyl)-1H-pyrrolo[3,2-c]pyridin-6-yl)-2-fluorophenyl)-8-methyl-8-azabicyclo[3.2.1]octan-3-ol] | 1
3 | COc1ccc(-c2c(C)n(C)c3cnc(-c4ccc(N5CCN(CC(C)(C)O)CC5)cc4)cc23)cc1OC [Example 3, 1-(4-(4-(3-(3,4-Dimethoxyphenyl)-1,2-dimethyl-1H-pyrrolo[2,3-c]pyridin-5-yl)phenyl)piperazin-1-yl)-2-methylpropan-2-ol] | 37.7
4 | CC(C)(O)CN1CC2CCC(C1)N2Cc1ccc(-c2cc3c(cn2)cc(-c2ccc(S(C)(=O)=O)cc2)n3C2CC2)cc1 [Example 130, 1-(8-(4-(1-cyclopropyl-2-(4-(methylsulfonyl)phenyl)-1H-pyrrolo[3,2-c]pyridin-6-yl)benzyl)-3,8-diazabicyclo[3.2.1]octan-3-yl)-2-methylpropan-2-ol] | 6.4
5 | COc1ccc(-c2c(C)n(C)c3cnc(C4CCN(C5CCN(C(=O)C(C)C)CC5)CC4)cc23)cc1OC [Example 18, 1-(4-(3-(3,4-dimethoxyphenyl)-1,2-dimethyl-1H-pyrrolo[2,3-c]pyridin-5-yl)-[1,4′-bipiperidin]-1′-yl)-2-methylpropan-1-one] | > 50
6 | CCN1C2CCC1CC(O)(c1ccc(-c3cc4c(cc(-c5ccc(S(C)(=O)=O)cc5)n4C)c(C)n3)cc1F)C2 [Example 101, (1R,3r,5S)-3-(4-(1,4-dimethyl-2-(4-(methylsulfonyl)phenyl)-1H-pyrrolo[3,2-c]pyridin-6-yl)-2-fluorophenyl)-8-ethyl-8-azabicyclo[3.2.1]octan-3-ol] | 5.1
7 | Cc1nc(C2CCN(C3CC4CCC(C3)N4CC(C)C)CC2)cc2c1cc(-c1ccc(S(C)(=O)=O)cc1)n2C (centres unmarked) [Example 114, 6-(1-(8-isobutyl-8-azabicyclo[3.2.1]octan-3-yl)piperidin-4-yl)-1,4-dimethyl-2-(4-(methylsulfonyl)phenyl)-1H-pyrrolo[3,2-c]pyridine] | > 50
8 | COc1ccc(-c2cc3cnc(-c4ccc(N5CCN(C(=O)c6ccccc6)CC5)cc4)cc3n2C)cc1OC [Example 29, (4-(4-(2-(3,4-dimethoxyphenyl)-1-methyl-1H-pyrrolo[3,2-c]pyridin-6-yl)phenyl)piperazin-1-yl)(phenyl)methanone] | 8.2
9 | CC(C)N1CCN(c2ccc(-c3cc4c(cn3)cc(-c3ccc(S(C)(=O)=O)cc3)n4C)cc2)CC1 [Example 54, 6-(4-(4-isopropylpiperazin-1-yl)phenyl)-1-methyl-2-(4-(methylsulfonyl)phenyl)-1H-pyrrolo[3,2-c]pyridine] | > 50
10 | COc1ccc(-c2cc3cnc(C4CCN(Cc5ccc(C(F)(F)F)nc5)CC4)cc3n2C)cc1OC [Example 28, 2-(3,4-dimethoxyphenyl)-1-methyl-6-(1-((6-(trifluoromethyl)pyridin-3-yl)methyl)piperidin-4-yl)-1H-pyrrolo[3,2-c]pyridine] | 20.5
11 | COc1ccc(-c2cc3cnc(C4CCN(C5CCN(C(=O)c6ccccc6)CC5)CC4)cc3n2C)cc1OC [Example 26, (4-(2-(3,4-dimethoxyphenyl)-1-methyl-1H-pyrrolo[3,2-c]pyridin-6-yl)-[1,4′-bipiperidin]-1′-yl)(phenyl)methanone] | 1.2
12 | Cc1nc(-c2ccc(CN3CCN(CCC(C)(C)O)CC3)cc2)cc2c1cc(-c1ccc(S(C)(=O)=O)cc1)n2C1CC1 [Example 116, 4-[4-[[4-[1-cyclopropyl-4-methyl-2-(4-methylsulfonylphenyl)pyrrolo[3,2-c]pyridin-6-yl]phenyl]methyl]piperazin-1-yl]-2-methyl-butan-2-ol] | 19
13 | Cc1nc(-c2ccc(C3(O)CCN(C(C)(C)C)CC3)c(F)c2)cc2c1cc(-c1ccc(S(C)(=O)=O)cc1)n2C [Example 104, 1-(tert-butyl)-4-(4-(1,4-dimethyl-2-(4-(methylsulfonyl)phenyl)-1H-pyrrolo[3,2-c]pyridin-6-yl)-2-fluorophenyl)piperidin-4-ol] | 2.1
14 | Cc1nc(-c2ccc(CN3C[C@@H]4CC[C@H]3CN4CCC(C)(C)O)cc2)cc2c1cc(-c1ccc(S(C)(=O)=O)cc1)n2C [Example 61, 4-((1S,4S)-5-(4-(1,4-dimethyl-2-(4-(methylsulfonyl)phenyl)-1H-pyrrolo[3,2-c]pyridin-6-yl)benzyl)-2,5-diazabicyclo[2.2.2]octan-2-yl)-2-methylbutan-2-ol] | 0.86
15 | COc1ccc(-c2cc3cnc(C4CCN(C(=O)CN5CCCCC5)CC4)cc3n2C)cc1OC [Example 25, 1-(4-(2-(3,4-dimethoxyphenyl)-1-methyl-1H-pyrrolo[3,2-c]pyridin-6-yl)piperidin-1-yl)-2-(piperidin-1-yl)ethan-1-one] | > 50
16 | Cc1nc(-c2ccc(C3CCN(CCCO)CC3)cc2)cc2c1cc(-c1ccc(S(C)(=O)=O)cc1)n2C [Example 41, 3-(4-(4-(1,4-Dimethyl-2-(4-(methylsulfonyl)phenyl)-1H-pyrrolo[3,2-c]pyridin-6-yl)phenyl)piperidin-1-yl)propan-1-ol] | > 16.7
17 | Cc1nc(-c2ccc(N3CCN(CC(C)C)CC3)c(F)c2F)cc2c1cc(-c1ccc(S(C)(=O)=O)cc1)n2C [Example 82, 6-(2,3-difluoro-4-(4-isobutylpiperazin-1-yl)phenyl)-1,4-dimethyl-2-(4-(methylsulfonyl)phenyl)-1H-pyrrolo[3,2-c]pyridine] | > 50
18 | COc1ccc(-c2c(C)[nH]c3cnc(C4CCN(C5CCN(C(=O)C(C)C)CC5)CC4)cc23)cc1OC [Example 15, 1-(4-(3-(3,4-dimethoxyphenyl)-2-methyl-1H-pyrrolo[2,3-c]pyridin-5-yl)-[1,4′-bipiperidin]-1′-yl)-2-methylpropan-1-one] | > 50
19 | CC(C)CN1CCN(c2ccc(-c3cc4c(cn3)cc(-c3ccc(S(C)(=O)=O)cc3)n4C)cc2)CC1 [Example 53, 6-(4-(4-isobutylpiperazin-1-yl)phenyl)-1-methyl-2-(4-(methylsulfonyl)phenyl)-1H-pyrrolo[3,2-c]pyridine] | > 50
20 | COc1ccc(-c2[nH]c3cnc(-c4ccc(N5CCN(C(C)C)CC5)cc4)cc3c2C)cc1OC [Example 1, 2-(3,4-Dimethoxyphenyl)-5-(4-(4-isopropylpiperazin-1-yl)phenyl)-3-methyl-1H-pyrrolo[2,3-c]pyridine] | 21
21 | Cc1nc(-c2ccc(CN3CCN(CC(C)C)CC3)cc2)cc2c1cc(-c1ccc(S(C)(=O)=O)cc1)n2C [Example 57, 6-(4-((4-isobutylpiperazin-1-yl)methyl)phenyl)-1,4-dimethyl-2-(4-(methylsulfonyl)phenyl)-1H-pyrrolo[3,2-c]pyridine] | 7.5
22 | COc1ccc(-c2c(C)[nH]c3cnc(C4CCN(C(=O)C5CCN(C6CC6)CC5)CC4)cc23)cc1OC [Example 5, (1-Cyclopropylpiperidin-4-yl)(4-(3-(3,4-dimethoxyphenyl)-2-methyl-1H-pyrrolo[2,3-c]pyridin-5-yl)piperidin-1-yl)methanone] | > 50
23 | Cc1nc(-c2ccc(C3(O)CCN(C(C)C)CC3)cc2F)cc2c1cc(-c1ccc(S(C)(=O)=O)cc1)n2C [Example 109, 4-(4-(1,4-dimethyl-2-(4-(methylsulfonyl)phenyl)-1H-pyrrolo[3,2-c]pyridin-6-yl)-3-fluorophenyl)-1-isopropylpiperidin-4-ol] | 1.1
